The results in this text go back to patent US20250263395A1, “COMPOUNDS THAT MEDIATE PROTEIN DEGRADATION AND METHODS OF USE THEREOF” (Monte Rosa Therapeutics AG, priority 2022, published 2025).

Where only a bound is given, the exact number is not on record here.

One assay concerns the target CRBN-DDB1 (Homo sapiens (Human), UniProt Q96SW2). The assay can be described thus: CRBN HTRF assay (Cy5-Thalidomide probe displacement). Format: binding. Particulars: CRBN-DDB1 2.5 nM, Cy5-Thalidomide 100 nM, 30 min; Ki from geometric mean IC50 by Cheng-Prusoff. An outline of the steps:
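HTRF displacement of Cy5-thalidomide probe (100 nM) from His-CRBN-DDB1 (2.5 nM) with anti-His terbium cryptate, in HEPES/NaCl/TCEP/EDTA/Tween20 buffer. 10-point 1:3 compound series, 30 min at ambient temperature; signal normalised to DMSO and lenalidomide controls, IC50 fitted and Ki derived by Cheng-Prusoff.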

A further assay deals with CDK2 (Homo sapiens (Human), UniProt P24941). The assay can be described thus: CDK2 NanoBiT assay (HiBiT-tagged CDK2 degradation). Format: cell-based. The conditions noted are these: HEK293, HEK293 clonal line, C-terminal HiBiT tag on CDK2, LgBiT; 24 hours. An outline of the steps:
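HEK293 line with CRISPR knock-in C-terminal HiBiT-tagged CDK2 and stable LgBiT, preincubated 16 h with live-cell substrate, then compound-treated 24 h at 37° C, 5% CO2 (30 μM stock). Luminescence normalized to plate negative and positive controls; EC50 from 3-parameter logistic fit, Hill slope 1.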

Chain of CRBN-DDB1 (Q96SW2 whole entry): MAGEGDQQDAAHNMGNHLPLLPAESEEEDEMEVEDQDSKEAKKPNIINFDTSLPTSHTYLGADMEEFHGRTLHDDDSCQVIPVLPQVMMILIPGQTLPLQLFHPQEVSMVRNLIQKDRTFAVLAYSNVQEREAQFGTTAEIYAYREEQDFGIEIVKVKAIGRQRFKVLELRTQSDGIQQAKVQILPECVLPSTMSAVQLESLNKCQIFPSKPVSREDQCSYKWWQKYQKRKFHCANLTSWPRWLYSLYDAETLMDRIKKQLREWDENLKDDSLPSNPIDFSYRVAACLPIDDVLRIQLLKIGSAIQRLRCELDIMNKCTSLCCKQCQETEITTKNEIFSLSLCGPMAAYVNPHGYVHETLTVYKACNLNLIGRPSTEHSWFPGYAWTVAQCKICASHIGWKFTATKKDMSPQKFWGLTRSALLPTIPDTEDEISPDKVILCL
Chain of CRBN-DDB1 (Q16531 whole entry partner): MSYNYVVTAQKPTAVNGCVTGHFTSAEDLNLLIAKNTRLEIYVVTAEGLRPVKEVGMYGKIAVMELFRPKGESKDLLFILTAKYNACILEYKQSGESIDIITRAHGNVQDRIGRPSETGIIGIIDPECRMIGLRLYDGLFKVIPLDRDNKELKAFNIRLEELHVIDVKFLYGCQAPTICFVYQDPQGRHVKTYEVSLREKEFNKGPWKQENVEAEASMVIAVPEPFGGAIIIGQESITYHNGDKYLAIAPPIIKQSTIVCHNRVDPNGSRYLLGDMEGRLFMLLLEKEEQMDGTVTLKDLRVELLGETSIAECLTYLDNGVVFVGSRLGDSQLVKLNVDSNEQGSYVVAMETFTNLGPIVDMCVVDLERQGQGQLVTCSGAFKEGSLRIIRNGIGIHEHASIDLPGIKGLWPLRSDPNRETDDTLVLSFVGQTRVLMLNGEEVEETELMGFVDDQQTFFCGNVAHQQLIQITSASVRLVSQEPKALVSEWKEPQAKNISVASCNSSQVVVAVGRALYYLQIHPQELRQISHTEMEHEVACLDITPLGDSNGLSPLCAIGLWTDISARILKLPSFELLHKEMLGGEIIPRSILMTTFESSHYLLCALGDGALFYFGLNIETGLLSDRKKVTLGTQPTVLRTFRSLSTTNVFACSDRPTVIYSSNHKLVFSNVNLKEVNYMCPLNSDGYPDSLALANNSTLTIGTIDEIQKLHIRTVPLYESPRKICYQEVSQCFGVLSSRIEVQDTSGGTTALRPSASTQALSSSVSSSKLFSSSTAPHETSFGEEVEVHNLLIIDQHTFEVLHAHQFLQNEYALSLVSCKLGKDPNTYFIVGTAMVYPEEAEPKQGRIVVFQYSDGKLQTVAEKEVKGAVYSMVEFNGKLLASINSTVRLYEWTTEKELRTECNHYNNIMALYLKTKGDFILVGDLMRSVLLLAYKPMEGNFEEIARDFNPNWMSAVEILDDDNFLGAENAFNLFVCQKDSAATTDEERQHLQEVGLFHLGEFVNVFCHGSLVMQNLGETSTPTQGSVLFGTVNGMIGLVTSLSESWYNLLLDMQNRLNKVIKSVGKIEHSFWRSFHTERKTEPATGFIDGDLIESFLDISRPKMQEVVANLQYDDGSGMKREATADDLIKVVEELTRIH

With `CN(C(=O)C12CC(OC(=O)NC3CN(c4cc(F)c(C5CCC(=O)NC5=O)c(F)c4)C3)(C1)C2)c1ccc(OC(F)(F)F)cc1` (stereo not shown) [Compound 125, 3-(methyl(4-(trifluoromethoxy)phenyl)carbamoyl)bicyclo[1.1.1]pentan-1-yl (1-(4-(2,6-dioxopiperidin-3-yl)-3,5-difluorophenyl)azetidin-3-yl)carbamate], the Ki on CRBN-DDB1 was ≤ 100 nM. At CDK2, the Dmax was in the range of 50 to 80%.
In the case of `O=C1CCC(c2c(F)cc(N3C[C@H](Nc4nnc(C5CC6(CCC6)C5)o4)CC3=O)cc2F)C(=O)N1` (stereo partly drawn) [Compound 92, 3-(2,6-difluoro-4-((R)-2-oxo-4-((5-(spiro[3.3]heptan-2-yl)-1,3,4-oxadiazol-2-yl)amino)pyrrolidin-1-yl)phenyl)piperidine-2,6-dione], the Ki on CRBN-DDB1 is ≤ 100 nM. The Dmax at CDK2 is 50 to 80%.
At CRBN-DDB1, `O=C1CCC(c2ccc(N3CC(NC(=O)OCC4CC5(CCC5)C4)C3)cc2)C(=O)N1` (stereo not shown) [Compound 62, spiro[3.3]heptan-2-ylmethyl (1-(4-(2,6-dioxopiperidin-3-yl)phenyl)azetidin-3-yl)carbamate] gave an inhibition constant (Ki) of 100 to 1000 nM. At CDK2, the Dmax is > 80%.
As for `O=C1CCC(c2c(F)cc(N3C[C@@H](NC(=O)OCC4CC5(CCC5)C4)CC3=O)cc2F)C(=O)N1` (stereo partly drawn) [Compound 57, spiro[3.3]heptan-2-ylmethyl ((3S)-1-(4-(2,6-dioxopiperidin-3-yl)-3,5-difluorophenyl)-5-oxopyrrolidin-3-yl)carbamate], on CRBN-DDB1, the Ki was 100 to 1000 nM. On CDK2, the Dmax was in the range of 50 to 80%.
At CRBN-DDB1, `COc1c(N2CC(C)(NC(=O)OCC3CC4(CCC4)C3)C2)ccc(C2CCC(=O)NC2=O)c1F` (stereo not shown) [Compound 2, spiro[3.3]heptan-2-ylmethyl (1-(4-(2,6-dioxopiperidin-3-yl)-3-fluoro-2-methoxyphenyl)-3-methylazetidin-3-yl)carbamate] gave a Ki of 100 to 1000 nM. In addition, the Dmax at CDK2 was in the range of 50 to 80%.
Consider `CN(C(=O)N1CC(OC(=O)NC2CN(c3cc(F)c(C4CCC(=O)NC4=O)c(F)c3)C2)C1)c1ccccc1` (stereo not shown) [Compound 17, 1-(methyl(phenyl)carbamoyl)azetidin-3-yl (1-(4-(2,6-dioxopiperidin-3-yl)-3,5-difluorophenyl)azetidin-3-yl)carbamate], for which, at CRBN-DDB1, the Ki was ≤ 100 nM. At CDK2, this molecule gave a Dmax of 50 to 80%.
As for `Cc1cc(N2CC(NC(=O)OC3CN(C(=O)N(C)C4CC4)C3)C2)cc(F)c1C1CCC(=O)NC1=O` (stereo not shown) [Compound 15, 1-(cyclopropyl(methyl)carbamoyl)azetidin-3-yl (1-(4-(2,6-dioxopiperidin-3-yl)-3-fluoro-5-methylphenyl)azetidin-3-yl)carbamate], the Ki on CRBN-DDB1 was ≤ 100 nM. For the same molecule, the Dmax at CDK2 lay within 50 to 80%.
Turning to `O=C1CCC(c2c(F)cc([C@@H]3C[C@H]3NC(=O)OCC3CC4(CCC4)C3)cc2F)C(=O)N1` (stereo partly shown) [Compound 38], at CRBN-DDB1, the Ki is ≤ 100 nM. Moreover, the Dmax at CDK2 is > 80%.
For the molecule `O=C1CCC(c2c(F)cc(N3CC(NC(=O)OCc4ccc(OC(F)(F)F)cc4)C3)cc2F)C(=O)N1` (stereo not shown) [Compound 35, 4-(trifluoromethoxy)benzyl (1-(4-(2,6-dioxopiperidin-3-yl)-3,5-difluorophenyl)azetidin-3-yl)carbamate], on CRBN-DDB1, the Ki lay in the range of 100 to 1000 nM. Also, the Dmax on CDK2 was > 80%.
Regarding `Cc1ccc(N(C)C(=O)C23CC(OC(=O)NC4CN(c5cc(F)c(C6CCC(=O)NC6=O)c(F)c5)C4)(C2)C3)cc1` (stereo not shown) [Compound 133, 3-(methyl (p-tolyl)carbamoyl)bicyclo[1.1.1]pentan-1-yl (1-(4-(2,6-dioxopiperidin-3-yl)-3,5-difluorophenyl)azetidin-3-yl)carbamate], the Ki on CRBN-DDB1 is ≤ 100 nM. At CDK2, the Dmax was 50 to 80%.
The corresponding values for `CN(C(=O)N1CCC(OC(=O)NC2CN(c3cc(F)c(C4CCC(=O)NC4=O)c(F)c3)C2)CC1)C1CC1` (stereo not shown) [Compound 88, 1-(cyclopropyl(methyl)carbamoyl)piperidin-4-yl (1-(4-(2,6-dioxopiperidin-3-yl)-3,5-difluorophenyl)azetidin-3-yl)carbamate] are ≤ 100 nM and 50 to 80%.
For `O=C1CCC(c2ccc(N3CC(NC(=O)OCC4CC5(CCC5)C4)C3)cc2Cl)C(=O)N1` (stereo not shown) [Compound 60, spiro[3.3]heptan-2-ylmethyl (1-(3-chloro-4-(2,6-dioxopiperidin-3-yl)phenyl)azetidin-3-yl)carbamate], the Ki on CRBN-DDB1 was ≤ 100 nM. For the same molecule, the Dmax at CDK2 is > 80%.
Consider `CC(C)(CCOC(=O)NC1CN(c2cc(F)c(C3CCC(=O)NC3=O)c(F)c2)C1)C1CC1` (stereo not shown) [Compound 65, 3-cyclopropyl-3-methylbutyl (1-(4-(2,6-dioxopiperidin-3-yl)-3,5-difluorophenyl)azetidin-3-yl)carbamate], for which the Ki on CRBN-DDB1 was ≤ 100 nM. In addition, the Dmax at CDK2 is > 80%.
The corresponding values for `C[C@@H]1[C@@H](Nc2nnc(C34CC(C(F)(F)F)(C3)C4)o2)CN1c1cc(F)c(C2CCC(=O)NC2=O)c(F)c1` (stereo partly drawn) [Compound 140, 3-(2,6-difluoro-4-((2R,3S)-2-methyl-3-((5-(3-(trifluoromethyl)bicyclo[1.1.1]pentan-1-yl)-1,3,4-oxadiazol-2-yl)amino)azetidin-1-yl)phenyl)piperidine-2,6-dione] are 100 to 1000 nM and 50 to 80%.
The corresponding values for `Cc1cccc(N2CC(OC(=O)NC3CN(c4cc(F)c(C5CCC(=O)NC5=O)c(F)c4)C3)C2)n1` (stereo not shown) [Compound 80, 1-(6-methylpyridin-2-yl)azetidin-3-yl (1-(4-(2,6-dioxopiperidin-3-yl)-3,5-difluorophenyl)azetidin-3-yl)carbamate] are ≤ 100 nM and 50 to 80%.
At CRBN-DDB1, `O=C1CCC(c2c(F)cc(N3CC(NC(=O)OCc4ccccc4)C3)cc2F)C(=O)N1` (stereo not shown) [Compound 37, benzyl (1-(4-(2,6-dioxopiperidin-3-yl)-3,5-difluorophenyl)azetidin-3-yl)carbamate] had a Ki of 100 to 1000 nM. This molecule also returned a Dmax at CDK2 of 50 to 80%.
As to `O=C1CCC(c2c(F)cc(N3CC(NC(=O)OC4CN(S(=O)(=O)C5CC5)C4)C3)cc2F)C(=O)N1` (stereo not shown) [Compound 42, 1-(cyclopropylsulfonyl)azetidin-3-yl (1-(4-(2,6-dioxopiperidin-3-yl)-3,5-difluorophenyl)azetidin-3-yl)carbamate], on CRBN-DDB1, the Ki is ≤ 100 nM. This molecule also had a Dmax on CDK2 of 10 to 50%.
On to `CN(C(=O)C12CC(OC(=O)NC3CN(c4cc(F)c(C5CCC(=O)NC5=O)c(F)c4)C3)(C1)C2)C1CC1` (stereo not shown) [Compound 78, 3-(cyclopropyl(methyl)carbamoyl)bicyclo[1.1.1]pentan-1-yl (1-(4-(2,6-dioxopiperidin-3-yl)-3,5-difluorophenyl)azetidin-3-yl)carbamate], for which, on CRBN-DDB1, the Ki is ≤ 100 nM. For the same molecule, the Dmax on CDK2 lay within 50 to 80%.
Take `Cc1ccc(N(C)C(=O)N2CC(OC(=O)NC3CN(c4cc(F)c(C5CCC(=O)NC5=O)c(F)c4)C3)C2)cn1` (stereo not shown) [Compound 109, 1-(methyl (6-methylpyridin-3-yl)carbamoyl) azetidin-3-yl (1-(4-(2,6-dioxopiperidin-3-yl)-3,5-difluorophenyl)azetidin-3-yl) carbamate]: on CRBN-DDB1, the Ki was ≤ 100 nM. Moreover, the Dmax on CDK2 lay within 10 to 50%.
Take `O=C1CCC(c2c(F)cc(N3CC(Nc4nnc(Cc5ccccc5)o4)C3)cc2F)C(=O)N1` (stereo not shown) [Compound 100, 3-(4-(3-((5-benzyl-1,3,4-oxadiazol-2-yl)amino)azetidin-1-yl)-2,6-difluorophenyl)piperidine-2,6-dione]: the Ki at CRBN-DDB1 was ≤ 100 nM. Also, on CDK2, the Dmax is 50 to 80%.
The corresponding values for `Cc1ccc(N2CC(OC(=O)NC3CN(c4cc(F)c(C5CCC(=O)NC5=O)c(F)c4)C3)C2)nc1` (stereo not shown) [Compound 79, 1-(5-methylpyridin-2-yl)azetidin-3-yl (1-(4-(2,6-dioxopiperidin-3-yl)-3,5-difluorophenyl)azetidin-3-yl)carbamate] are ≤ 100 nM and 50 to 80%.
With `CN(C)C(=O)N1CCC(OC(=O)NC2CN(c3cc(F)c(C4CCC(=O)NC4=O)c(F)c3)C2)CC1` (stereo not shown) [Compound 19, 1-(dimethylcarbamoyl)piperidin-4-yl (1-(4-(2,6-dioxopiperidin-3-yl)-3,5-difluorophenyl)azetidin-3-yl)carbamate], the Ki at CRBN-DDB1 is ≤ 100 nM. Also, the Dmax on CDK2 fell in the range of 10 to 50%.
`Cc1ccccc1N(C)C(=O)C12CC(OC(=O)NC3CN(c4cc(F)c(C5CCC(=O)NC5=O)c(F)c4)C3)(C1)C2` (stereo not shown) [Compound 135, 3-(methyl(o-tolyl)carbamoyl)bicyclo[1.1.1]pentan-1-yl (1-(4-(2,6-dioxopiperidin-3-yl)-3,5-difluorophenyl)azetidin-3-yl)carbamate] yielded a Ki on CRBN-DDB1 of 100 to 1000 nM. This molecule had a Dmax at CDK2 of 50 to 80%.
As to `CC1(C)CCC(COC(=O)NC2CN(c3cc(F)c(C4CCC(=O)NC4=O)c(F)c3)C2)CC1` (stereo not shown) [Compound 53, (4,4-dimethylcyclohexyl)methyl (1-(4-(2,6-dioxopiperidin-3-yl)-3,5-difluorophenyl)azetidin-3-yl)carbamate], at CRBN-DDB1, the Ki is ≤ 100 nM. The Dmax at CDK2 is > 80%.
Consider `Cc1ccc(N(C)C(=O)N2CC(OC(=O)NC3CN(c4cc(F)c(C5CCC(=O)NC5=O)c(F)c4)C3)C2)c(C)c1` (stereo not shown) [Compound 116, 1-((2,4-dimethylphenyl)(methyl)carbamoyl)azetidin-3-yl (1-(4-(2,6-dioxopiperidin-3-yl)-3,5-difluorophenyl)azetidin-3-yl)carbamate], for which the Ki on CRBN-DDB1 was ≤ 100 nM. For the same molecule, the Dmax on CDK2 fell in the range of 10 to 50%.
On to `Cn1ccnc1N1CC(OC(=O)NC2CN(c3cc(F)c(C4CCC(=O)NC4=O)c(F)c3)C2)C1` (stereo not shown) [Compound 77, 1-(1-methyl-1H-imidazol-2-yl)azetidin-3-yl (1-(4-(2,6-dioxopiperidin-3-yl)-3,5-difluorophenyl)azetidin-3-yl)carbamate], for which the Ki at CRBN-DDB1 is ≤ 100 nM. The molecule further displayed a Dmax on CDK2 of 10 to 50%.
